{
  "source": "patent US7144720B2",
  "about": "“Protein and DNA thereof” (Takeda Chemical Industries, Ltd., priority 1998, dated 2006)",
  "molecules": {"B1": {"name": "recombinant ADAM protein: about 35 kDa His-tagged metalloprotease and disintegrin region of the novel human ADAM protein, expressed in Escherichia coli from pMDH (protein)", "chain": "VQEHEKYIEYYLVLDNGEFKRYNENQDEIRKRVFEMANYVNMLYKKLNTHVALVGMEIWTDKDKIKITPNASFTLENFSKWRGSVLSRRKRHDIAQLITATELAGTTVGLAFMSTMCSPYSVGVVQDHSDNLLRVAGTMAHEMGHNFGMFHDDYSCKCPSTICVMDKALSFYIPTDFSSCSRLSYDKFFEDKLSNCLFNAPLPTDIISTPICGNQLVEMGEDCDCGTSEECTNICCDAKTCKIKATFQCALGECCEKCQFKKAGMVCRPAKDECDLPEMCNGKSGNCPDDRFQVNGF", "modifications": "left off: small tags and cut ends", "notes": "about 35 kDa His-tagged metalloprotease and disintegrin region of the novel human ADAM protein, expressed in Escherichia coli from pMDH"}},
  "assay_type_in_all_cases": "biochemical",
  "key": {"ADAM protein": {"molecular_target": "T1, ADAM protein (Homo sapiens, UniProt Q9UKQ2)", "T1 construct": "made in house; host or cells: Escherichia coli BL21 (DE3)", "T1 sequence (Q9UKQ2 199-495)": "B1 chain", "assay": "Inhibition of the protease activity of the ADAM protein by test compounds", "conditions": "Nma-Pro-Lys-Pro-Leu-Ala-Nva-Trp-Lys(DNP)-NH2 substrate, 37° C., 2 hours; read-out: IC50 value (concentration of a test compound which 50% inhibits the protease activity)", "description": "(§1) An enzymatic reaction was initiated by adding 75 μl of a buffer (83.3 mM Tris-HCl, pH 7.5, 16.7 mM NaCl, 1.67 mM CaCl2, 16.7 μM CoCl2, and 0.067% BSA) to a solution (25 μl) of the ADAM protein obtained according to the same manner as that of Example 3, and adding 25 μl of a solution of a substrate (50 μM Nma-Pro-Lys-Pro-Leu-Ala-Nva-Trp-Lys(DNP)-NH2, 0.05% BSA, and 5% DMSO). After a temperature was held at 37° C. for 2 hours, 100 μl of a 0.5M acetate buffer (pH 3.0) was added to stop the enzymatic reaction. The fluorescent intensity in the case of addition of no an enzyme solution [fluorescent intensity was measured at an excitation wavelength of 340 nm and a measuring wavelength of 450 nm using a fluorescent platereader (Corona MTP-32)] was 10, while the fluorescent intensity in the case of addition of the enzyme solution was 180.\n10 μl of a test compound adjusted to the predetermined concentration (dissolved in 50% DMSO) was added to the above activity measuring system. […] From this, it was considered that search on a substance which regulates (inhibits or promotes) the protease activity of the present ADAM protein can be conducted using the present assay system."}, "[1]": {"molecular_target": "T2, MOCAc-Arg-Pro-Lys-Pro-Tyr-Ala-Nva-Trp-Met-Lys(DNP)-NH2 (Homo sapiens, UniProt Q9UKQ2)", "T2 construct": "made in house; host or cells: Escherichia coli BL21 (DE3)", "T2 sequence (Q9UKQ2 199-495)": "B1 chain", "assay": "Detection of the protease activity of recombinant ADAM protein (fluorogenic MOCAc peptide substrate)", "conditions": "37° C. for 22 hour; excitation 328 nm, 393 nm; 10 μM substrate; intensity 2 when no protein added", "description": "30 μL of a buffer [250 mM Tris-hydrochloric acid (pH7.5), 5 mM calcium chloride, and 10 μM zinc chloride] and 20 μL of the recombinant ADAM protein (0.8 mg/mL) obtained in Example 3 were added to a 96-well plate (Fluoro B plate, manufactured by Dainihonseiyaku). After preincuvation at 37° C. for 10 minutes, an enzymatic reaction was initiated by adding 100 μL of a 10 μM substrate [MOCAc-Arg-Pro-Lys-Pro-Tyr-Ala-Nva-Trp -Met-Lys(DNP)-NH2, manufactured by Peptide Laboratory]. After the reaction at 37° C. for 22 hour, the fluorescent intensity in the reaction solution was measured at an excitation wave length of 328 nm and […] wave length of 393 nm using a microplatereader (manufactured by Applied Biosystems). The fluorescent intensity was 2 when no recombinant ADAM protein was added, while the fluorescent intensity of 70 was shown when the protein was added. From these, it was made clear that the present ADAM protein had the protease activity. It is considered that search of a substance which regulates (inhibits and promotes) the protease activity of the present ADAM protein is possible using this assay."}, "[2]": {"molecular_target": "T3, Nma-Pro-Lys-Pro-Leu-Ala-Nva-Trp-Lys(DNP)-NH2 (Homo sapiens, UniProt Q9UKQ2)", "T3 construct": "made in house; host or cells: Escherichia coli BL21 (DE3)", "T3 sequence (Q9UKQ2 199-495)": "B1 chain", "assay": "Protease activity of ADAM protein with Nma peptide substrate", "conditions": "37° C. for 2 hours; excitation 340 nm, measuring 450 nm; intensity 10 without enzyme solution", "description": "as §1"}},
  "note": "Peptide text beside a SMILES is read from it. * marks the point of attachment. Cbz = O=C(OCc1ccccc1)*; NHOH = ON*",
  "data": [
    {"molecule": "CCCCC[C@H](CC(=O)NO)C(=O)N[C@H](C(=O)N1CCC[C@H]1CO)C(C)C", "note": "[actinonin]", "values": [
      {"measurement": "IC50", "setting": "ADAM protein", "result": 600, "unit": "µM"}
    ]},
    {"molecule": "CC(C)C[C@H](NC(=O)[C@@H]1CCCN1C(=O)OCc1ccccc1)C(=O)NCC(=O)NO", "note": "[N-CBZ-Pro-Leu-Gly-hydroxamate] (Cbz-Pro-Leu-Gly-{NHOH})", "values": [
      {"measurement": "IC50", "setting": "ADAM protein", "result": "~100", "unit": "µM"}
    ]},
    {"molecule": "B1", "values": [
      {"measurement": "fluorescent intensity", "setting": "[1]", "result": 70},
      {"measurement": "fluorescent intensity", "setting": "[2]", "result": 180}
    ]}
  ]
}
